# Active and inactive are the calls of the source. No rule for the calls is given here.
# Tested on: CCRIS mutagenicity, Ames/micronucleus/aberration tests
# Assay: CCRIS mutagenicity studies
# [1] = Test System: AMES SALMONELLA TYPHIMURIUM, Strain/Indicator: TA98, Metabolic Activation: NONE, Method: STANDARD PLATE
# [2] = Test System: AMES SALMONELLA TYPHIMURIUM, Strain/Indicator: TA100, Metabolic Activation: NONE, Method: STANDARD PLATE
# [3] = Test System: AMES SALMONELLA TYPHIMURIUM, Strain/Indicator: TA98, Metabolic Activation: RAT, LIVER, S-9, AROCLOR 1254, Method: STANDARD PLATE
# [4] = Test System: AMES SALMONELLA TYPHIMURIUM, Strain/Indicator: TA100, Metabolic Activation: RAT, LIVER, S-9, AROCLOR 1254, Method: STANDARD PLATE
# [5] = Test System: AMES SALMONELLA TYPHIMURIUM, Strain/Indicator: TA1535, Metabolic Activation: NONE, Method: STANDARD PLATE
# [6] = Test System: AMES SALMONELLA TYPHIMURIUM, Strain/Indicator: TA1535, Metabolic Activation: RAT, LIVER, S-9, AROCLOR 1254, Method: STANDARD PLATE
# [7] = Test System: AMES SALMONELLA TYPHIMURIUM, Strain/Indicator: TA1537, Metabolic Activation: NONE, Method: STANDARD PLATE
# [8] = Test System: AMES SALMONELLA TYPHIMURIUM, Strain/Indicator: TA1537, Metabolic Activation: RAT, LIVER, S-9, AROCLOR 1254, Method: STANDARD PLATE
# [9] = Test System: MOUSE LYMPHOMA, Strain/Indicator: L5178Y (TK+/TK-), Metabolic Activation: NONE, Method: SUSPENSION/PLATE
# [10] = Test System: MOUSE LYMPHOMA, Strain/Indicator: L5178Y (TK+/TK-), Metabolic Activation: RAT, LIVER, S-9, AROCLOR 1254, Method: SUSPENSION/PLATE
compound,measurement,setting,value
COc1ccc(/C=C/c2ccc(N)cc2)cc1,mutagenic call,"Test System: AMES SALMONELLA TYPHIMURIUM, Strain/Indicator: TA98(1,8-DNP6), Metabolic Activation: NONE, Method: STANDARD PLATE",inactive; negative
same,mutagenic call,"Test System: AMES SALMONELLA TYPHIMURIUM, Strain/Indicator: TA98(1,8-DNP6), Metabolic Activation: S-9, Method: STANDARD PLATE",inactive; negative
same,mutagenic call,[1],inactive; negative
same,mutagenic call,"Test System: AMES SALMONELLA TYPHIMURIUM, Strain/Indicator: TA98, Metabolic Activation: S-9, Method: STANDARD PLATE",active; positive
same,mutagenic call,[2],inactive; negative
same,mutagenic call,"Test System: AMES SALMONELLA TYPHIMURIUM, Strain/Indicator: TA100, Metabolic Activation: S-9, Method: STANDARD PLATE",active; positive
O=[O+][O-],mutagenic call,"Test System: AMES SALMONELLA TYPHIMURIUM, Strain/Indicator: TA98, Metabolic Activation: NONE, Method: VAPOR CHAMBER",inactive; negative
same,mutagenic call,"Test System: AMES SALMONELLA TYPHIMURIUM, Strain/Indicator: TA98, Metabolic Activation: RAT, LIVER, S-9, AROCLOR 1254, Method: VAPOR CHAMBER",inactive; negative
same,mutagenic call,"Test System: AMES SALMONELLA TYPHIMURIUM, Strain/Indicator: TA100, Metabolic Activation: NONE, Method: VAPOR CHAMBER",inactive; negative
same,mutagenic call,"Test System: AMES SALMONELLA TYPHIMURIUM, Strain/Indicator: TA100, Metabolic Activation: RAT, LIVER, S-9, AROCLOR 1254, Method: VAPOR CHAMBER",inactive; negative
same,mutagenic call,"Test System: AMES SALMONELLA TYPHIMURIUM, Strain/Indicator: TA102, Metabolic Activation: NONE",active; positive
same,mutagenic call,"Test System: AMES SALMONELLA TYPHIMURIUM, Strain/Indicator: TA102, Metabolic Activation: NONE, Method: VAPOR CHAMBER",active; positive
same,mutagenic call,"Test System: AMES SALMONELLA TYPHIMURIUM, Strain/Indicator: TA102, Metabolic Activation: RAT, LIVER, S-9, AROCLOR 1254 (10%)",active; positive
same,mutagenic call,"Test System: AMES SALMONELLA TYPHIMURIUM, Strain/Indicator: TA102, Metabolic Activation: RAT, LIVER, S-9, AROCLOR 1254, Method: VAPOR CHAMBER",active; positive
same,mutagenic call,"Test System: AMES SALMONELLA TYPHIMURIUM, Strain/Indicator: TA104, Metabolic Activation: NONE, Method: VAPOR CHAMBER",inactive; negative
same,mutagenic call,"Test System: AMES SALMONELLA TYPHIMURIUM, Strain/Indicator: TA104, Metabolic Activation: RAT, LIVER, S-9, AROCLOR 1254, Method: VAPOR CHAMBER",inactive; negative
same,mutagenic call,"Test System: AMES SALMONELLA TYPHIMURIUM, Strain/Indicator: TA1535, Metabolic Activation: NONE, Method: VAPOR CHAMBER",inactive; negative
same,mutagenic call,"Test System: AMES SALMONELLA TYPHIMURIUM, Strain/Indicator: TA1535, Metabolic Activation: RAT, LIVER, S-9, AROCLOR 1254, Method: VAPOR CHAMBER",inactive; negative
C/C=C(/C)C(=O)O[C@@H]1CCN2CC=C(CO)[C@H]12,mutagenic call,"Test System: AMES SALMONELLA TYPHIMURIUM, Strain/Indicator: TA100, Metabolic Activation: RAT, LIVER, S-9, SODIUM PHENOBARBITAL AND BETA-NAPHTHOFLAVONE, Method: PREINCUBATION",inactive; negative
Nc1ncn([C@@H]2O[C@H](CO)[C@@H](O)[C@@H]2O)c(=O)n1,mutagenic call,"Test System: AMES SALMONELLA TYPHIMURIUM, Strain/Indicator: TA98, Metabolic Activation: HAMSTER, LIVER, S-9, AROCLOR 1254, Method: STANDARD PLATE",inactive; negative
same,mutagenic call,[1],inactive; negative
same,mutagenic call,[3],inactive; negative
same,mutagenic call,"Test System: AMES SALMONELLA TYPHIMURIUM, Strain/Indicator: TA100, Metabolic Activation: HAMSTER, LIVER, S-9, AROCLOR 1254, Method: STANDARD PLATE",inactive; negative
same,mutagenic call,[2],inactive; negative
same,mutagenic call,[4],inactive; negative
same,mutagenic call,"Test System: AMES SALMONELLA TYPHIMURIUM, Strain/Indicator: TA1535, Metabolic Activation: HAMSTER, LIVER, S-9, AROCLOR 1254, Method: STANDARD PLATE",inactive; negative
same,mutagenic call,[5],inactive; negative
same,mutagenic call,[6],inactive; negative
same,mutagenic call,"Test System: AMES SALMONELLA TYPHIMURIUM, Strain/Indicator: TA1537, Metabolic Activation: HAMSTER, LIVER, S-9, AROCLOR 1254, Method: STANDARD PLATE",inactive; negative
same,mutagenic call,[7],inactive; negative
same,mutagenic call,[8],inactive; negative
same,mutagenic call,"Test System: AMES SALMONELLA TYPHIMURIUM, Strain/Indicator: TA1538, Metabolic Activation: HAMSTER, LIVER, S-9, AROCLOR 1254, Method: STANDARD PLATE",inactive; negative
same,mutagenic call,"Test System: AMES SALMONELLA TYPHIMURIUM, Strain/Indicator: TA1538, Metabolic Activation: NONE, Method: STANDARD PLATE",inactive; negative
same,mutagenic call,"Test System: AMES SALMONELLA TYPHIMURIUM, Strain/Indicator: TA1538, Metabolic Activation: RAT, LIVER, S-9, AROCLOR 1254, Method: STANDARD PLATE",inactive; negative
same,mutagenic call,[9],active; positive. reevaluation of results: inconclusive
same,mutagenic call,[10],inactive; negative. reevaluation of results: inconclusive
O=c1[nH]c(=O)[nH]c(=O)[nH]1,mutagenic call,"Test System: AMES SALMONELLA TYPHIMURIUM, Strain/Indicator: TA98, Metabolic Activation: HAMSTER, LIVER, S-9, AROCLOR 1254, Method: PREINCUBATION",inactive; negative
same,mutagenic call,"Test System: AMES SALMONELLA TYPHIMURIUM, Strain/Indicator: TA98, Metabolic Activation: NONE, Method: PREINCUBATION",inactive; negative
same,mutagenic call,[1],inactive; negative
same,mutagenic call,"Test System: AMES SALMONELLA TYPHIMURIUM, Strain/Indicator: TA98, Metabolic Activation: RAT, LIVER, S-9, AROCLOR 1254, Method: PREINCUBATION",inactive; negative
same,mutagenic call,[3],inactive; negative
same,mutagenic call,"Test System: AMES SALMONELLA TYPHIMURIUM, Strain/Indicator: TA100, Metabolic Activation: HAMSTER, LIVER, S-9, AROCLOR 1254, Method: PREINCUBATION",inactive; negative
same,mutagenic call,"Test System: AMES SALMONELLA TYPHIMURIUM, Strain/Indicator: TA100, Metabolic Activation: NONE, Method: PREINCUBATION",inactive; negative
same,mutagenic call,[2],inactive; negative
same,mutagenic call,"Test System: AMES SALMONELLA TYPHIMURIUM, Strain/Indicator: TA100, Metabolic Activation: RAT, LIVER, S-9, AROCLOR 1254, Method: PREINCUBATION",inactive; negative
same,mutagenic call,[4],inactive; negative
same,mutagenic call,"Test System: AMES SALMONELLA TYPHIMURIUM, Strain/Indicator: TA1535, Metabolic Activation: HAMSTER, LIVER, S-9, AROCLOR 1254, Method: PREINCUBATION",inactive; negative
same,mutagenic call,"Test System: AMES SALMONELLA TYPHIMURIUM, Strain/Indicator: TA1535, Metabolic Activation: NONE, Method: PREINCUBATION",inactive; negative
same,mutagenic call,[5],inactive; negative
same,mutagenic call,"Test System: AMES SALMONELLA TYPHIMURIUM, Strain/Indicator: TA1535, Metabolic Activation: RAT, LIVER, S-9, AROCLOR 1254, Method: PREINCUBATION",inactive; negative
same,mutagenic call,[6],inactive; negative
same,mutagenic call,"Test System: AMES SALMONELLA TYPHIMURIUM, Strain/Indicator: TA1537, Metabolic Activation: HAMSTER, LIVER, S-9, AROCLOR 1254, Method: PREINCUBATION",inactive; negative
same,mutagenic call,"Test System: AMES SALMONELLA TYPHIMURIUM, Strain/Indicator: TA1537, Metabolic Activation: NONE, Method: PREINCUBATION",inactive; negative
same,mutagenic call,[7],inactive; negative
same,mutagenic call,"Test System: AMES SALMONELLA TYPHIMURIUM, Strain/Indicator: TA1537, Metabolic Activation: RAT, LIVER, S-9, AROCLOR 1254, Method: PREINCUBATION",inactive; negative
same,mutagenic call,[8],inactive; negative
same,mutagenic call,[9],inactive; negative
same,mutagenic call,[10],inactive; negative

# Source: PubChem BioAssay AID1259407 (Chemical Carcinogenesis Research Information System (CCRIS), 2018)
